Data set [1] concerns the target Cannabinoid receptor 1 (Homo sapiens, UniProt P21554). In kind it is cell membranes, Chem-1, Membrane. Note: in other assays of this panel Not Active means under 50% inhibition at 10 µM.
Data set [2] deals with Beta-3 adrenergic receptor (Homo sapiens, UniProt P13945). Kind of data set: DRUGMATRIX: Adrenergic beta3 radioligand binding (ligand: [125I] Cyanopindolol). In kind it is cell membranes, HEK293, Membrane. Particulars: hek293; Not Active = under 50% inhibition at 10 µM.
Sequence of Beta-3 adrenergic receptor (P13945 whole entry): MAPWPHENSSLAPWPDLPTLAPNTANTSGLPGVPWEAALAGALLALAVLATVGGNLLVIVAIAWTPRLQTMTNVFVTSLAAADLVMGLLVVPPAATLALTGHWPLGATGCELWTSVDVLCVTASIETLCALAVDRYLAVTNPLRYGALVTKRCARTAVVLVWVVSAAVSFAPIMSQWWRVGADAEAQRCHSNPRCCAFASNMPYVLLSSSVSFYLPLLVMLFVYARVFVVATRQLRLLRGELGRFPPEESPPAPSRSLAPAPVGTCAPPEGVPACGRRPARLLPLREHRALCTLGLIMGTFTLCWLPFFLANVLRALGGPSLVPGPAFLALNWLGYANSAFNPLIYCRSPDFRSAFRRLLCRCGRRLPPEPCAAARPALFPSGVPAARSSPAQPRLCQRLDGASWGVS
For data set [3], the target named is T1, Cholecystokinin receptor type A (Homo sapiens, UniProt P32238). Note: in other assays of this panel Not Active means under 50% inhibition at 10 µM.
T1 sequence (P32238 whole entry): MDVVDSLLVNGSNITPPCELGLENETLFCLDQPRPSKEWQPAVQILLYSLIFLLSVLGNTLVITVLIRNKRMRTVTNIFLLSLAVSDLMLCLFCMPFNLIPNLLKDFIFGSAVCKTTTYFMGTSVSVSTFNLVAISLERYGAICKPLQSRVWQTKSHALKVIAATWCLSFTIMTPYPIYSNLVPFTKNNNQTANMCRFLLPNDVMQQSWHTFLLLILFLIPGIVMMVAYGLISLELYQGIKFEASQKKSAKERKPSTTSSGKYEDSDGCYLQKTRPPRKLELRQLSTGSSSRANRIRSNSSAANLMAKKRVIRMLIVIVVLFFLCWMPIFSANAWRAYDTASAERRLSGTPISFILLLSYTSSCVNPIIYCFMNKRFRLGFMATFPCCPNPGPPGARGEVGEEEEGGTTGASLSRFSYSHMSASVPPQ
In kind it is cell membranes, Membrane. Particulars: 1321-n1.

Data set [4] addresses T2, Cytochrome P450 1A2 (Homo sapiens, UniProt P05177).
T2 sequence (P05177 whole entry): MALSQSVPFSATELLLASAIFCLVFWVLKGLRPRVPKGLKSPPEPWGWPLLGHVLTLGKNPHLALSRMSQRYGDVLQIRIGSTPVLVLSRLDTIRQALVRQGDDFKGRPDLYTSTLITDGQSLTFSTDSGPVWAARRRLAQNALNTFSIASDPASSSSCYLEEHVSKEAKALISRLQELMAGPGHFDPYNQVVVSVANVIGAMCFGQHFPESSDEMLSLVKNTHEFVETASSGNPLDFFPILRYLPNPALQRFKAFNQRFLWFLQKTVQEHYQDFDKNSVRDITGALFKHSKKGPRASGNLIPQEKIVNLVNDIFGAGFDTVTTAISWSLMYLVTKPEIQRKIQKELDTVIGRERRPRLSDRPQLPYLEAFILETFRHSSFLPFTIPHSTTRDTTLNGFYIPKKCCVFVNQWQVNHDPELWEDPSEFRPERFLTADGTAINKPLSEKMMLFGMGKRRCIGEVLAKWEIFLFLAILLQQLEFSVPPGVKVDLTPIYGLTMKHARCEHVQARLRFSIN
As to conditions: bti-tn-5b1-4.

The target in data set [5] is T3, C-X-C chemokine receptor type 1 (Homo sapiens, UniProt P25024). Note: in other assays of this panel Not Active means under 50% inhibition at 10 µM.
T3 sequence (P25024 whole entry): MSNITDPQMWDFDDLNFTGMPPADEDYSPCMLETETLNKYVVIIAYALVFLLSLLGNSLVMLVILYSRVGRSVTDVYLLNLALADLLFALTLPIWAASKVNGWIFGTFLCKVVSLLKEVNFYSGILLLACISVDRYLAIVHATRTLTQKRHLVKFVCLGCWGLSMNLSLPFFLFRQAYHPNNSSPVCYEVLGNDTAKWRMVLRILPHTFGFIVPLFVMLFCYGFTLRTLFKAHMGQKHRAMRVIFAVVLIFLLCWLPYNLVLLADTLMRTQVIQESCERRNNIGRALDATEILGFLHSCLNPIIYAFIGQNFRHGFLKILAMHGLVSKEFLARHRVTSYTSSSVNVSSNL

The nature of data set [6]: DRUGMATRIX: Phosphodiesterase PDE3 enzyme inhibition (substrate: [3H]cAMP + cAMP). The format is tissue-based, Homo sapiens. As to conditions: platelet; Not Active = under 50% inhibition at 10 µM.

The values that follow come from ChEMBL document CHEMBL1909046, “DrugMatrix in vitro pharmacology data”.

Sequence of Cannabinoid receptor 1 (P21554 whole entry): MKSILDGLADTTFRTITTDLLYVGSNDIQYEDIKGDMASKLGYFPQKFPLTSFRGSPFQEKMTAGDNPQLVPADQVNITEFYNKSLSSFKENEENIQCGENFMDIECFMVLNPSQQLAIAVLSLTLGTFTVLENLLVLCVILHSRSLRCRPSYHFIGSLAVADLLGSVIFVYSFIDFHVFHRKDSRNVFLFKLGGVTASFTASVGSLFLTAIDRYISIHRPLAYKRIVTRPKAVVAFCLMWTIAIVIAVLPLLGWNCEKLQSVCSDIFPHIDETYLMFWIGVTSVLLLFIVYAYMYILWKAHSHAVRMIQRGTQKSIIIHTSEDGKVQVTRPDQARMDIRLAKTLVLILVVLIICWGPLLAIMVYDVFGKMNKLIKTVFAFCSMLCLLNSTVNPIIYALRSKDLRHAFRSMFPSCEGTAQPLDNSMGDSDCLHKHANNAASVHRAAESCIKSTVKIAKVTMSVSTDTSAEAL

Take `C[N+](C)(C)CCOC(N)=O.[Cl-]` [CARBACHOL]: the IC50 entry in data set [1] (chem-1), in data set [2], in data set [3], in data set [4], in data set [5] and in data set [6] was “Not Active” each time. In addition, the Ki entry in data set [4] and in data set [6] was “Not Active” in each case.

In the case of `CCN1C[C@]2(COC)[C@H](O)C[C@H](OC)[C@@]34[C@@H]5C[C@@]6(O)[C@H](OC(=O)c7ccccc7)[C@@H]5[C@@](OC(C)=O)([C@@H]([C@H](OC)[C@H]23)[C@@H]14)[C@@H](O)[C@@H]6OC` [ACONITINE], the IC50 entry in data set [1] (chem-1), in data set [2], in data set [3], in data set [4], in data set [5] and in data set [6] was “Not Active” in each case. For the same compound, the Ki entry in data set [4] and in data set [6] was “Not Active” throughout.

For the compound `O=C(NCCN1CCOCC1)c1ccc(Cl)cc1` [MOCLOBEMIDE], the IC50 entry in data set [1] (chem-1), in data set [2], in data set [3], in data set [4], in data set [5] and in data set [6] was “Not Active” each time. The Ki entry in data set [4] and in data set [6] was “Not Active” throughout.

In the case of `O=C(O)COC(=O)Cc1ccccc1Nc1c(Cl)cccc1Cl` [ACECLOFENAC], the IC50 entry in data set [1] (chem-1), in data set [2], in data set [3], in data set [4], in data set [5] and in data set [6] was “Not Active” throughout. For the same compound, the Ki result in data set [4] and in data set [6] was “Not Active” throughout.

For the compound `c1ccc2c(c1)Nc1ccccc1S2` [PHENOTHIAZINE], the IC50 – broadly, the midpoint of a concentration-inhibition curve – in data set [1] (read-out: IC50) was 24.9 µM; in data set [2], “Not Active”; in data set [3] it was “Not Active”; in data set [5] it was “Not Active”; in data set [6], “Not Active”. Also, the Ki (commonly a dissociation constant, usually derived from enzyme kinetics or from competition with a known ligand) in data set [1] (read-out: Ki) is 19.6 µM; in data set [6] it was “Not Active”.

With `C#C[C@]1(O)CC[C@H]2[C@@H]3CCC4=CC(=O)CC[C@@H]4[C@H]3CC[C@@]21C` [NORETHINDRONE], the half-inhibitory concentration (IC50) entry in data set [1] (chem-1), in data set [2], in data set [3], in data set [4], in data set [5] and in data set [6] was “Not Active” in each case. Moreover, the Ki entry in data set [4] and in data set [6] was “Not Active” in each case.

Regarding `Cl.NC[C@H]1CC[C@H](C(=O)Oc2ccc(CCC(=O)O)cc2)CC1` [CETRAXATE HYDROCHLORIDE], the IC50 result in data set [1] (chem-1), in data set [2], in data set [3], in data set [4], in data set [5] and in data set [6] was “Not Active” throughout. Further, the Ki result in data set [4] and in data set [6] was “Not Active” throughout.

With `NS(=O)(=O)c1cc(C(=O)O)c(NCc2ccco2)cc1Cl` [FUROSEMIDE], the IC50 entry in data set [1] (chem-1), in data set [2], in data set [3], in data set [5] and in data set [6] was “Not Active” in each case. The Ki result in data set [6] is “Not Active”.

Regarding `C[C@H]1C[C@H]2[C@@H]3CCC4=CC(=O)C=C[C@]4(C)[C@@]3(F)[C@@H](O)C[C@]2(C)[C@@]1(O)C(=O)CO` [BETAMETHASONE], the IC50 result in data set [1] (chem-1), in data set [2], in data set [3], in data set [4], in data set [5] and in data set [6] was “Not Active” in each case. Also, the Ki result in data set [4] and in data set [6] was “Not Active” in each case.

For the compound `CC(C)(c1ccc(O)cc1)c1ccc(O)cc1` [BISPHENOL A], the IC50 result in data set [1] (chem-1), in data set [2], in data set [3], in data set [4], in data set [5] and in data set [6] was “Not Active” throughout. For the same compound, the Ki result in data set [4] and in data set [6] was “Not Active” each time.

For the compound `CCN1CCN(C(=O)N[C@@H](C(=O)N[C@@H]2C(=O)N3[C@@H]2SC(C)(C)[C@@H]3C(=O)O)c2ccccc2)C(=O)C1=O` [PIPERACILLIN], the IC50 result in data set [1] (chem-1), in data set [2], in data set [3], in data set [4], in data set [5] and in data set [6] was “Not Active” each time. In addition, the inhibition constant (Ki) result in data set [4] and in data set [6] was “Not Active” throughout.

Take `CC[C@H]1OC(=O)[C@H](C)[C@@H](O[C@H]2C[C@@](C)(OC)[C@@H](O)[C@H](C)O2)[C@H](C)[C@@H](O[C@@H]2O[C@H](C)C[C@H](N(C)C)[C@H]2O)[C@](C)(O)C[C@@H](C)C(=O)[C@H](C)[C@@H](O)[C@]1(C)O` [ERYTHROMYCIN]: the IC50 result in data set [1] (chem-1), in data set [2], in data set [3], in data set [4], in data set [5] and in data set [6] was “Not Active” throughout. Further, the Ki entry in data set [4] and in data set [6] was “Not Active” in each case.

For `COc1cc(NC(C)CCCN)c2ncccc2c1` (stereo not given) [PRIMAQUINE], the IC50 entry in data set [1] (chem-1), in data set [2], in data set [3], in data set [5] and in data set [6] was “Not Active” each time. Besides, the Ki entry in data set [6] is listed as “Not Active”.

For `O=C(O)c1ccccc1` [BENZOIC ACID], the IC50 result in data set [1] (chem-1), in data set [2], in data set [3], in data set [4], in data set [5] and in data set [6] was “Not Active” in each case. The Ki result in data set [4] and in data set [6] was “Not Active” in each case.

On to `CC(C)NCC(O)COc1ccc(CC(N)=O)cc1` (stereo not given) [ATENOLOL], for which the IC50 entry in data set [1] (chem-1), in data set [2], in data set [3], in data set [5] and in data set [6] was “Not Active” each time. Further, the inhibition constant (Ki) entry in data set [6] is “Not Active”.

Turning to `O=C(O)CO` [GLYCOLIC ACID], the IC50 result in data set [1] (chem-1), in data set [2], in data set [3], in data set [4], in data set [5] and in data set [6] was “Not Active” in each case. Moreover, the Ki result in data set [4] and in data set [6] was “Not Active” throughout.

In the case of `CCC1(c2ccccc2)C(=O)NC(=O)NC1=O` [PHENOBARBITAL], the IC50 entry in data set [1] (chem-1), in data set [2], in data set [3], in data set [4], in data set [5] and in data set [6] was “Not Active” in each case. Further, the Ki entry in data set [4] and in data set [6] was “Not Active” each time.

In the case of `Oc1ccccc1` [PHENOL], the IC50 result in data set [1] (chem-1), in data set [2], in data set [3], in data set [4], in data set [5] and in data set [6] was “Not Active” throughout. The Ki result in data set [4] and in data set [6] was “Not Active” throughout.

Consider `COc1ccc(Cl)cc1C(=O)NCCc1ccc(S(=O)(=O)NC(=O)NC2CCCCC2)cc1` [GLYBURIDE], for which the IC50 result in data set [1] (chem-1), in data set [2], in data set [3], in data set [4], in data set [5] and in data set [6] was “Not Active” each time. In addition, the Ki entry in data set [4] and in data set [6] was “Not Active” throughout.
